The record followed here is patent US20120309699A1, “COMPOUNDS HAVING ANTI-INFLAMMATORY ACTIVITY” (Consejo Superior de Investigaciones Cientificas (CSIC), priority 2009, published 2012).

Test [1] relates to Myeloperoxidase (MPO). Kind of test: Myeloperoxidase activity in colonic mucosa (DSS model). Type of test: in vivo, mice. The note with it: after DSS; HED 10 mg. The method, then: (§1) A model for intestinal inflammation based on the administration of DSS (sodium dextran sulfate) to C57BL/6 mice was used. At the present time there is no consensus about which overall is the best model for experimental colitis. The DSS model has been widely used because it has clinical, morphological and analytical characteristics which up to a point are similar to those specific to patients with ulcerative colitis or Crohn's disease.
(§2) The in vivo inflammation test was carried out using duplicates separated by a number of months. In each test each group of animals (n=8) was fed a standard diet supplemented with 2.3 mg/day/kg (animal weight) of each of the compounds, depending upon the group. […]
(§3) • Monitoring of weight, food and drink ingestion. The mice in all groups were individually monitored, with weight, quantity of food ingested and water drunk each day being monitored throughout the experimental test. • Blood and water in feces. The water content of feces, as an indication of diarrhea, was evaluated using the difference in weight following evaporation in a stove. Blood was measured using reactive strips based on the guaiacol-peroxidase reaction (HealthCare Diagnosis Inc.). […] The reaction was measured using a scale from 0 (negative result) to 4 (most intense color change). • Length of colon. After sacrifice the colon was obtained from each mouse, extended and measured. […]

Test [2] has as its system clostridia. Description: Microbiota counts in feces: clostridia. The note with it: pre-treatment, maintained after DSS; HED 10 mg. Format: in vivo, mice. How it is done:
as §1, §2, §3

For test [3], the system named is Prostaglandin E2. Description: Prostaglandins in colonic mucosa (DSS model). Type of test: in vivo, mice. The note with it: after DSS; HED 10 mg. The method, then:
as §1, §2, §3

Test [4] relates to Salmonella. Description: Adhesion of Salmonella to Caco-2 cells. The note with it: Caco-2, 25 μM/well; in comparison with resveratrol and the other derivatives. Type of test: cell-based, human. The method, then:
We used two cell models for colon cancer to evaluate the anti-adhesion capacity of compounds derived from resveratrol against pathogenic bacteria in food: Caco-2 (a model frequently used to measure the adhesion of microorganisms) and HT-29 (a model frequently used to measure immune response to infections by enteropathogens). Caco-2 and HT-29 cells were grown in EMEM and DMEM respectively, for which 24 well plates were used at 37° C., 5% CO2, 95% air until a single layer of confluent epithelium formed (cell concentration per well 2×10^5 and 6×10^5 respectively). Pathogenic bacteria (E. coli O157, Salmonella and Listeria monocytogenes Scott A) were placed in contact with the various compounds derived from resveratrol for 1 hour and subsequently the bacteria together with the different compounds in a concentration of 25 μM/well were inoculated on the cell cultures, incubating the plates for 2 hours at 37° C., 5% CO2, 95% air. The plates were then washed 3 times with 1 ml of sterile PBS and 1 ml of distilled water with 20% of glycerol was added, and they were frozen at −70° C. to lyse the epithelial cells. […] Concentrations of the various derivatives tested were detected in the digestive tracts of experimental animals and therefore the test lay within the range of physiologically achievable concentrations.

Test [5] deals with haptoglobin. Kind of test: Systemic inflammation marker haptoglobin (DSS model). Format: in vivo, mice. The note with it: vs DSS group; HED 10 mg. How it is done: as §1
The in vivo inflammation test was carried out using duplicates separated by a number of months. In each test each group of animals (n=8) was fed a standard diet supplemented with 2.3 mg/day/kg (animal weight) of each of the compounds, depending upon the group. This dose assumes the ingestion of 0.05 mg/day (50 μg/day) per mouse (having a mean weight of 22 grams). This dose extrapolated to a human being is equivalent to 10 mg in an adult weighing 70 kg; using the formula HED (human equivalent dose)=animal dose in mg/kg×(animal weight kg/human weight in kg)^0.33.
In each test the mice were fed for 3 weeks during which 1% DSS was included in their drink. The DSS was maintained for 8 days (and the same food as from the start). Then the DSS was withdrawn and the animals were allowed to recover for another 6 days (again with the same food).
• Monitoring of weight, food and drink ingestion. The mice in all groups were individually monitored, with weight, quantity of food ingested and water drunk each day being monitored throughout the experimental test. • Blood and water in feces. The water content of feces, as an indication of diarrhea, was evaluated using the difference in weight following evaporation in a stove. Blood was measured using reactive strips based on the guaiacol-peroxidase reaction (HealthCare Diagnosis Inc.). […] The reaction was measured using a scale from 0 (negative result) to 4 (most intense color change). • Length of colon. After sacrifice the colon was obtained from each mouse, extended and measured. […] This was evaluated by spectrophotometry at 460 nm using O-dianisidine reagent and hydrogen peroxide. The change in absorbance at 460 nm was monitored over 10 minutes in a V-630 spectrophotometer (Jasco, Tokyo, Japan). MPO activity was expressed as mU of activity/mg of fresh tissue, comparing the increase in absorbance with a standard straight line obtained using leukocyte myeloperoxidase (Sigma). • Prostaglandins in colonic mucosa. Levels of PGE2 were measured in colonic mucosa homogenates using an immunoenzyme method using a Cayman Chem. kit (USA). • “Antibody array”. […] The signal was detected by chemoluminescence. […] Signal intensities (densitometry) were analyzed using ScanAlyze software. […] The changes in cytokine levels were expressed as mean±SD in arbitrary density units. […]

Test [6] has as its system E. coli. Kind of test: Microbiota counts in feces: E. coli. Type of test: in vivo, mice. The note with it: after administration of DSS; HED 10 mg. The method, then:
as §1
The in vivo inflammation test was carried out using duplicates separated by a number of months. In each test each group of animals (n=8) was fed a standard diet supplemented with 2.3 mg/day/kg (animal weight) of each of the compounds, depending upon the group. This dose assumes the ingestion of 0.05 mg/day (50 μg/day) per mouse (having a mean weight of 22 grams). This dose extrapolated to a human being is equivalent to 10 mg in an adult weighing 70 kg; using the formula HED (human equivalent dose)=animal dose in mg/kg×(animal weight kg/human weight in kg)^0.33. […]
• Monitoring of weight, food and drink ingestion. The mice in all groups were individually monitored, with weight, quantity of food ingested and water drunk each day being monitored throughout the experimental test. • Blood and water in feces. The water content of feces, as an indication of diarrhea, was evaluated using the difference in weight following evaporation in a stove. Blood was measured using reactive strips based on the guaiacol-peroxidase reaction (HealthCare Diagnosis Inc.). […] The reaction was measured using a scale from 0 (negative result) to 4 (most intense color change). • Length of colon. After sacrifice the colon was obtained from each mouse, extended and measured. […] This was evaluated by spectrophotometry at 460 nm using O-dianisidine reagent and hydrogen peroxide. The change in absorbance at 460 nm was monitored over 10 minutes in a V-630 spectrophotometer (Jasco, Tokyo, Japan). […] Levels of PGE2 were measured in colonic mucosa homogenates using an immunoenzyme method using a Cayman Chem. kit (USA). • “Antibody array”. […] The signal was detected by chemoluminescence. […]

For the compound `CCCCCCCC(=O)OCC1OC(Oc2cc(O)cc(/C=C/c3ccc(O)cc3)c2)C(O)C(O)C1O` [OCT, trans-resveratrol-3-O-(6′-O-octanoyl)-β-D-glucopyranoside], the “Myeloperoxidase activity in colonic mucosa” value in test [1] is “most obvious fall”. Also, in test [2], the “Population of clostridia in feces” value is recorded as “increases the population”. For the same compound, in test [3], the “Production of prostaglandins (PGE2) in colonic mucosa” value is “best results”. In addition, in test [4], the “Anti-adhesion efficacy in respect of Salmonella” value is “greater anti-adhesion efficacy”. Further, the Blood haptoglobin levels entry in test [5] is “most notable differences”. In addition, the “E. coli count in feces” value in test [6] is recorded as “clear reduction”.

For `CCCC(=O)OCC1OC(Oc2cc(O)cc(/C=C/c3ccc(O)cc3)c2)C(O)C(O)C1O` [BUT, trans-resveratrol-3-O-(6′-O-butanoyl)-β-D-glucopyranoside], the “Myeloperoxidase activity in colonic mucosa” value in test [1] was “most obvious fall”. The “Population of clostridia in feces” value in test [2] was “increases the population”. Also, the “Production of prostaglandins (PGE2) in colonic mucosa” value in test [3] is recorded as “best results”. For the same compound, the “Anti-adhesion efficacy in respect of Salmonella” value in test [4] is on record as “greater anti-adhesion efficacy”. The Blood haptoglobin levels entry in test [5] is listed as “most notable differences”. Also, the “E. coli count in feces” value in test [6] was “clear reduction”.
